Assay results taken from US9695155B2, “Herbicidal substituted pyrimidinyloxy benzene compounds” (E. I. DU PONT DE NEMOURS AND COMPANY, priority 2013, dated 2017).

Tests used:
surinam grass = experiment: Test F preemergence; assay type: in vivo, Brachiaria decumbens; conditions: 21 days, scale 0 to 100
Text: (§1) Seeds of plant species selected from bermudagrass (Cynodon dactylon), surinam grass (Brachiaria decumbens), large (Lg) crabgrass (Digitaria sanguinalis), crabgrass, naked (naked crabgrass, Digitaria nuda), foxtail, green (green foxtail, Setaria viridis), johnsongrass (Sorghum halepense), kochia (Kochia scoparia), morningglory (pitted morningglory, Ipomoea lacunosa), nutsedge, purple (purple nutsedge, Cyperus rotundus), ragweed (common ragweed, Ambrosia elatior), mustard, black (black mustard, Brassica nigra), guineagrass (Panicum maximum), dallisgrass (Paspalum dilatatum), barnyardgrass (Echinochloa crus-galli), sandbur (southern sandbur, Cenchrus echinatus), sowthistle (common sowthistle, Sonchus oleraceous), Italian ryegrass (Lolium multiflorum), signalgrass (broadleaf signalgrass, Brachiaria platyphylla), dayflower (Virginia (VA) dayflower, Commelina virginica), bluegrass (annual bluegrass, Poa annua), quackgrass (Elytrigia repens), mallow (common mallow, Malva sylvestris), buckwheat, wild (wild buckwheat, Polygonum convolvulus), leafy spurge (Euphorbia esula), chickweed (common chickweed, Stellaria media), wild poinsettia (Euphorbia heterophylla), and pigweed (Amaranthus retroflexus) were planted into a blend of loam soil and sand and treated preemergence with test chemicals formulated in a non-phytotoxic solvent mixture which included a surfactant.
(§2) Treated plants and controls were maintained in a greenhouse for 21 days, after which time all species were compared to controls and visually evaluated. Plant response ratings, summarized in Table F, are based on a scale of 0 to 100 where 0 is no effect and 100 is complete control. A dash (-) response means no test result.

crabgrass, naked = experiment: Test F preemergence; assay type: in vivo, Digitaria nuda; conditions: 21 days, scale 0 to 100
Text: as §1, §2

sandbur = experiment: Test F preemergence; assay type: in vivo, Cenchrus echinatus; conditions: 21 days, scale 0 to 100
Text: as §1, §2

leafy spurge = experiment: Test F preemergence; assay type: in vivo, Euphorbia esula; conditions: 21 days, scale 0 to 100
Text: as §1, §2

bluegrass = experiment: Test D preemergence; assay type: in vivo, Poa annua; conditions: Poa annua, pre-emergence
Text: (§3) Seeds of plant species selected from bluegrass (annual bluegrass, Poa annua), blackgrass (Alopecurus myosuroides), canarygrass (littleseed canarygrass, Phalaris minor), chickweed (common chickweed, Stellaria media), galium (catchweed bedstraw, Galium aparine), bromegrass, downy (downy bromegrass, Bromus tectorum), field poppy (Papaver rhoeas), field violet (Viola arvensis), green foxtail (Setaria viridis), deadnettle (henbit deadnettle, Lamium amplexicaule), Italian ryegrass (Lolium multiflorum), kochia (Kochia scoparia), lambsquarters (Chenopodium album), oilseed rape (Brassica napus), pigweed (Amaranthus retroflexus), chamomile (scentless chamomile, Matricaria inodora), Russian thistle (Salsola kali), speedwell (bird's-eye speedwell, Veronica persica), spring barley (Hordeum vulgare), spring wheat (Triticum aestivum), wild buckwheat (Polygonum convolvulus), wild mustard (Sinapis arvensis), wild oat (Avena fatua), wild radish (Raphanus raphanistrum), windgrass (Apera spica-venti), winter barley (Hordeum vulgare), and winter wheat (Triticum aestivum) were planted into a silt loam soil and treated preemergence with test chemicals formulated in a non-phytotoxic solvent mixture which included a surfactant.
(§4) At the same time, these species were planted in pots containing Redi-Earth® planting medium (Scotts Company, 14111 Scottslawn Road, Marysville, Ohio 43041) comprising spaghnum peat moss, vermiculite, wetting agent and starter nutrients and treated with postemergence applications of the test chemicals formulated in the same manner. Plants ranged in height from 2 to 18 cm (1- to 4-leaf stage). Treated plants and controls were maintained in a controlled growth environment for 7 to 21 days after which time all species were compared to controls and visually evaluated. Plant response ratings, summarized in Table D, are based on a scale of 0 to 100 where 0 is no effect and 100 is complete control. A dash (-) response means no test result.

canarygrass = experiment: Test D preemergence; assay type: in vivo, Phalaris minor; conditions: Phalaris minor, pre-emergence
Text: as §3, §4

green foxtail = experiment: Test D preemergence; assay type: in vivo, Setaria viridis; conditions: Setaria viridis, pre-emergence
Text: as §3, §4

kochia = experiment: Test D preemergence; assay type: in vivo, Kochia scoparia; conditions: Bassia scoparia, pre-emergence
Text: as §3, §4

field poppy = experiment: Test D postemergence; assay type: in vivo, Papaver rhoeas; conditions: Papaver rhoeas, post-emergence
Procedure, shortened: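 Plant response is a visual score from 0 (no effect) to 100 (complete control) relative to controls. Plants were kept in a controlled growth environment for 7 to 21 days after spraying. Preemergence treatments went onto silt loam soil; postemergence ones onto 1- to 4-leaf seedlings.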

speedwell = experiment: Test D postemergence; assay type: in vivo, Veronica persica; conditions: Veronica persica, post-emergence
Text: as §3, §4

wild radish = experiment: Test D postemergence; assay type: in vivo, Raphanus raphanistrum; conditions: Raphanus raphanistrum, post-emergence
Text: as §3, §4

## N#Cc1cccc(Oc2ncc(Cl)cn2)c1-n1cc(OC(F)F)cn1 [Compound 97]
Surinam grass; 16 g ai/ha
  Plant response rating, Surinam Grass: 0
Surinam grass; 31 g ai/ha
  Plant response rating, Surinam Grass: 10
Surinam grass; 62 g ai/ha
  Plant response rating, Surinam Grass: 50
Surinam grass; 125 g ai/ha
  Plant response rating, Surinam Grass: 90
Surinam grass; 250 g ai/ha
  Plant response rating, Surinam Grass: 100
crabgrass, naked; 16 g ai/ha
  Plant response rating, Crabgrass, Naked: 100
crabgrass, naked; 31 g ai/ha
  Plant response rating, Crabgrass, Naked: 100
crabgrass, naked; 62 g ai/ha
  Plant response rating, Crabgrass, Naked: 100
crabgrass, naked; 125 g ai/ha
  Plant response rating, Crabgrass, Naked: 100
crabgrass, naked; 250 g ai/ha
  Plant response rating, Crabgrass, Naked: 100
sandbur; 16 g ai/ha
  Plant response rating, Sandbur: 0
sandbur; 31 g ai/ha
  Plant response rating, Sandbur: 10
sandbur; 62 g ai/ha
  Plant response rating, Sandbur: 25
sandbur; 125 g ai/ha
  Plant response rating, Sandbur: 100
sandbur; 250 g ai/ha
  Plant response rating, Sandbur: 100
Leafy spurge; 16 g ai/ha
  Plant response rating, Leafy Spurge: 98
Leafy spurge; 31 g ai/ha
  Plant response rating, Leafy Spurge: 98
Leafy spurge; 62 g ai/ha
  Plant response rating, Leafy Spurge: 100
Leafy spurge; 125 g ai/ha
  Plant response rating, Leafy Spurge: 100
Leafy spurge; 250 g ai/ha
  Plant response rating, Leafy Spurge: 100

## N#Cc1cccc(Oc2ncc(Cl)cn2)c1-n1cc(OCC(F)(F)F)cn1 [Compound 274, 3-[(5-chloro-2-pyrimidinyl)oxy]-2-[4-(2,2,2-trifluoroethoxy)-1H-pyrazol-1-yl]benzonitrile]
bluegrass; 16 g ai/ha, scale 0 (no effect) to 100 (complete control), read-out: Plant response rating, Bluegrass
  pest or weed control at 16 g/ha: 0%
bluegrass; 31 g ai/ha, scale 0-100, read-out: Plant response rating, Bluegrass
  pest or weed control at 31 g/ha: 5%
bluegrass; 62 g ai/ha, scale 0-100, read-out: Plant response rating, Bluegrass
  pest or weed control at 62 g/ha: 30%
bluegrass; 125 g ai/ha, scale 0-100, read-out: Plant response rating, Bluegrass
  pest or weed control at 125 g/ha: 70%
canarygrass; 16 g ai/ha, scale 0 (no effect) to 100 (complete control), read-out: Plant response rating, Canarygrass
  pest or weed control at 16 g/ha: 20%
canarygrass; 31 g ai/ha, scale 0-100, read-out: Plant response rating, Canarygrass
  pest or weed control at 31 g/ha: 20%
canarygrass; 62 g ai/ha, scale 0-100, read-out: Plant response rating, Canarygrass
  pest or weed control at 62 g/ha: 60%
canarygrass; 125 g ai/ha, scale 0-100, read-out: Plant response rating, Canarygrass
  pest or weed control at 125 g/ha: 85%
Green foxtail; 16 g ai/ha, scale 0 (no effect) to 100 (complete control), read-out: Plant response rating, Foxtail, Green
  pest or weed control at 16 g/ha: 15%
Green foxtail; 31 g ai/ha, scale 0-100, read-out: Plant response rating, Foxtail, Green
  pest or weed control at 31 g/ha: 75%
Green foxtail; 62 g ai/ha, scale 0-100, read-out: Plant response rating, Foxtail, Green
  pest or weed control at 62 g/ha: 100%
Green foxtail; 125 g ai/ha, scale 0-100, read-out: Plant response rating, Foxtail, Green
  pest or weed control at 125 g/ha: 100%
kochia; 16 g ai/ha, scale 0 (no effect) to 100 (complete control), read-out: Plant response rating, Kochia
  pest or weed control at 16 g/ha: 0%
kochia; 31 g ai/ha, scale 0-100, read-out: Plant response rating, Kochia
  pest or weed control at 31 g/ha: 70%
kochia; 62 g ai/ha, scale 0-100, read-out: Plant response rating, Kochia
  pest or weed control at 62 g/ha: 65%
kochia; 125 g ai/ha, scale 0-100, read-out: Plant response rating, Kochia
  pest or weed control at 125 g/ha: 100%
Field poppy; 16 g ai/ha, scale 0-100, read-out: Plant response rating, Field Poppy
  pest or weed control at 16 g/ha: 25%
Field poppy; 31 g ai/ha, scale 0 to 100 (0 no effect, 100 complete control), read-out: Plant response rating, Field Poppy
  pest or weed control at 31 g/ha: 40%
Field poppy; 62 g ai/ha, scale 0 to 100 (0 no effect, 100 complete control), read-out: Plant response rating, Field Poppy
  pest or weed control at 62 g/ha: 40%
Field poppy; 125 g ai/ha, scale 0 to 100 (0 no effect, 100 complete control), read-out: Plant response rating, Field Poppy
  pest or weed control at 125 g/ha: 80%
speedwell; 16 g ai/ha, scale 0-100, read-out: Plant response rating, Speedwell
  pest or weed control at 16 g/ha: 75%
speedwell; 31 g ai/ha, scale 0 to 100 (0 no effect, 100 complete control), read-out: Plant response rating, Speedwell
  pest or weed control at 31 g/ha: 100%
speedwell; 62 g ai/ha, scale 0 to 100 (0 no effect, 100 complete control), read-out: Plant response rating, Speedwell
  pest or weed control at 62 g/ha: 85%
speedwell; 125 g ai/ha, scale 0 to 100 (0 no effect, 100 complete control), read-out: Plant response rating, Speedwell
  pest or weed control at 125 g/ha: 100%
Wild radish; 16 g ai/ha, scale 0-100, read-out: Plant response rating, Radish, Wild
  pest or weed control at 16 g/ha: 70%
Wild radish; 31 g ai/ha, scale 0 to 100 (0 no effect, 100 complete control), read-out: Plant response rating, Radish, Wild
  pest or weed control at 31 g/ha: 70%
Wild radish; 62 g ai/ha, scale 0 to 100 (0 no effect, 100 complete control), read-out: Plant response rating, Radish, Wild
  pest or weed control at 62 g/ha: 70%
Wild radish; 125 g ai/ha, scale 0 to 100 (0 no effect, 100 complete control), read-out: Plant response rating, Radish, Wild
  pest or weed control at 125 g/ha: 90%
Surinam grass; 16 g ai/ha
  Plant response rating, Surinam Grass: 10
Surinam grass; 31 g ai/ha
  Plant response rating, Surinam Grass: 35
Surinam grass; 62 g ai/ha
  Plant response rating, Surinam Grass: 70
Surinam grass; 125 g ai/ha
  Plant response rating, Surinam Grass: 100
Surinam grass; 250 g ai/ha
  Plant response rating, Surinam Grass: 100
crabgrass, naked; 16 g ai/ha
  Plant response rating, Crabgrass, Naked: 100
crabgrass, naked; 31 g ai/ha
  Plant response rating, Crabgrass, Naked: 100
crabgrass, naked; 62 g ai/ha
  Plant response rating, Crabgrass, Naked: 100
crabgrass, naked; 125 g ai/ha
  Plant response rating, Crabgrass, Naked: 100
crabgrass, naked; 250 g ai/ha
  Plant response rating, Crabgrass, Naked: 100
sandbur; 16 g ai/ha
  Plant response rating, Sandbur: 5
sandbur; 31 g ai/ha
  Plant response rating, Sandbur: 20
sandbur; 62 g ai/ha
  Plant response rating, Sandbur: 70
sandbur; 125 g ai/ha
  Plant response rating, Sandbur: 95
sandbur; 250 g ai/ha
  Plant response rating, Sandbur: 100
Leafy spurge; 16 g ai/ha
  Plant response rating, Leafy Spurge: 100
Leafy spurge; 31 g ai/ha
  Plant response rating, Leafy Spurge: 98
Leafy spurge; 62 g ai/ha
  Plant response rating, Leafy Spurge: 100
Leafy spurge; 125 g ai/ha
  Plant response rating, Leafy Spurge: 100
Leafy spurge; 250 g ai/ha
  Plant response rating, Leafy Spurge: 100
